Laboratory results published in ChEMBL document CHEMBL5252626, “Design and synthesis of novel GluN2A NMDAR positive allosteric modulators via scaffold hopping strategy as anti-stroke therapeutic agents” (Bioorg Med Chem, 2023).
In brackets after ≈: the same amount, converted by molar mass. Activity calls are given as the source filed them. No cut-off for these calls is given here.

Experiments:
[1] = system: PC-12; experiment: Neuroprotective activity against glutamate-induced neurotoxicity in rat PC-12 cells assessed as survival rate at 0.1 uM by WST-8 assay (reference value: 40.8+/-2.0%); type: functional
[2] = system: PC-12; experiment: Neuroprotective activity against glutamate-induced neurotoxicity in rat PC-12 cells assessed as survival rate at 1 uM by WST-8 assay; type: functional
[3] = system: PC-12; experiment: Neuroprotective activity against glutamate-induced neurotoxicity in rat PC-12 cells assessed as survival rate at 10 uM by WST-8 assay; type: functional
[4] = system: PC-12; experiment: Cytotoxicity in rat PC-12 cells assessed as reduction in cell viability at 10 uM incubated for 24 hrs by CCK-8 method; type: toxicity, cell-based; settings: pc-12, 24 h
[5] = Solubility of the compound in water by UV spectophotometry analysis; type: physicochemical
[6] = target: Glutamate NMDA receptor; GRIN1/GRIN2B (Homo sapiens) (UniProt Q05586+Q13224); experiment: Positive allosteric modulation of GluN1/GluN2B receptor (unknown origin) stably expressed in HEK293 cells assessed as glutamate/glycine induced increase in intracellular calcium level at 10 uM incubated for 30 mins followed by addition of glutamate/glycine by Ca2+ influx assay; type: cell-based
[7] = target: T1, Glutamate NMDA receptor; GRIN1/GRIN2A (Homo sapiens) (UniProt Q05586+Q12879); experiment: Positive allosteric modulation of GluN1/GluN2A receptor (unknown origin) stably expressed in HEK293 cells assessed as glutamate/glycine induced increase in intracellular calcium level at 10 uM incubated for 30 mins followed by addition of glutamate/glycine by Ca2+ influx assay; type: cell-based; settings: filed as positive allosteric modulator
[8] = target: T1, Glutamate NMDA receptor; GRIN1/GRIN2A (Homo sapiens); experiment: Positive allosteric modulation of GluN1/GluN2A receptor (unknown origin) stably expressed in HEK293 cells assessed as ratio of Fmax/F0 fluorescence curve value; type: cell-based; settings: filed as positive allosteric modulator
[9] = system: Mus musculus; experiment: Neuroprotective activity in middle cerebral artery occlusion-induced C57BL/6 mouse model assessed as reduction in infarct volume at 2 mg/kg, sc incubated with compound for 2 hrs after reperfusion by TTC staining based assay relative to control; type: functional; set-up: scale not given: the % may be the effect or the level left
[10] = system: Mus musculus; experiment: Neuroprotective activity in middle cerebral artery occlusion-induced C57BL/6 mouse model assessed as reduction in infarct volume at 2 mg/kg, sc incubated with compound for 2 hrs after reperfusion by TTC staining based assay; type: functional
[11] = filed as positive allosteric modulator

| Structure (SMILES) | Activity [1] | Activity [2] | Activity [3] | Activity [4] | solubility [5] | Activity [6, 11] | Activity [7] | Ratio [8] | Activity [9] | Activity [10] | Activity [6] |
| --- | --- | --- | --- | --- | --- | --- | --- | --- | --- | --- | --- |
| COc1cccc2c1OCC(C(=O)Nc1ccc(NC(C)=O)cc1)=C2 | 53.5% | 54% | 41.2% | 67.3% |  |  |  |  |  |  |  |
| CNC(=O)c1ccccc1NC(=O)c1c[nH]c2c(Cl)cccc2c1=O | 47.6% | 47.3% | 42.6% | 93.8% |  |  |  |  |  |  |  |
| O=C(Nc1cccnc1)c1c[nH]c2ccccc2c1=O | 42.5% | 38.5% | 39.3% | 80.9% |  |  |  |  |  |  |  |
| CC(=O)Nc1ccc(NC(=O)C2=Cc3c(Br)cccc3OC2)cc1 | 46.7% | 46.9% | 41.7% | 92.9% |  |  |  |  |  |  |  |
| CC(=O)Nc1ccc(NC(=O)c2c[nH]c3ccccc3c2=O)cc1 | 57.2% | 66.6% | 65.4% | 101.5% | < 6.2 µM |  |  |  |  |  |  |
| O=C(Nc1cc(Cl)ccc1O)C1=Cc2ccccc2OC1 | 67.6% | 57.2% | 52.5% | 92.2% |  |  |  |  |  |  |  |
| O=C(NCc1ccc(Br)cc1)c1cc2c(Br)cccc2oc1=O | 40.87% | 40.76% | 39.9% | 94.97% |  |  |  |  |  |  |  |
| COC(=O)c1ccc(NC(=O)C2=Cc3ccccc3OC2)cc1 | 58.4% | 62.6% | 55.5% | 91.4% | 202 µM (≈ 62.5 µg/mL) |  |  |  |  |  |  |
| COc1ccc(NC(=O)c2c[nH]c3c(Cl)cccc3c2=O)cc1 | 33.6% | 35.5% | 54.3% | 79.9% |  |  |  |  |  |  |  |
| N#Cc1ccc(NC(=O)c2c[nH]c3ccccc3c2=O)cc1 | 34.7% | 39.7% | 40.7% | 71.9% |  |  |  |  |  |  |  |
| COc1ccccc1NC(=O)c1c[nH]c2ccccc2c1=O | 36.6% | 60.1% | 31.2% | 63% |  |  |  |  |  |  |  |
| COc1cccc(NC(=O)C2=Cc3ccccc3OC2)c1 | 34.2% | 35.3% | 62.6% | 79.1% |  |  |  |  |  |  |  |
| COc1cccc2c1OCC(C(=O)Nc1cc(Cl)ccc1O)=C2 | 61.5% | 58.6% | 71.3% | 92.6% |  |  |  |  |  |  |  |
| CC(C(O)c1ccc(O)cc1)N1CCC(Cc2ccccc2)CC1 (stereo not given) [IFENPRODIL] | 41.4% | 46.4% | 40.3% | 82.3% |  |  |  |  |  |  |  |
| COc1cccc2c1OCC(C(=O)Nc1ccc(Br)cn1)=C2 | 65.3% | 58.2% | 43.7% | 75.3% |  |  |  |  |  |  |  |
| COc1cccc2c1C=C(C(=O)Nc1ccc(NC(C)=O)cc1)CO2 | 59.2% | 76.9% | 56.9% | 85.5% |  |  |  |  |  |  |  |
| COC(=O)c1ccc(NC(=O)C2=Cc3cccc(OC)c3OC2)cc1 | 58.7% | 57.5% | 41.2% | 73.3% |  |  |  |  |  |  |  |
| CCOc1cc(Cl)c(Cl)c(/C=N/NC(=O)c2ccccc2Br)c1O | 44.3% | 53.1% | 8.6% | 40.2% |  | Active | Active | 152 | 31.33% | 149 mm |  |
| COc1cccc(NC(=O)c2c[nH]c3ccccc3c2=O)c1 | 65.5% | 59.5% | 44.5% | 100.8% | 454 µM (≈ 133 µg/mL) |  |  |  |  |  |  |
| COc1ccc(NC(=O)c2c[nH]c3ccccc3c2=O)c(C)c1 | 33.6% | 34.2% | 44% | 62% |  |  |  |  |  |  |  |

| Structure (SMILES) | Activity [1] | Activity [2] | Activity [3] | Activity [4] | solubility [5] | Activity [6, 11] | Activity [7] | Ratio [8] | Activity [9] | Activity [10] | Activity [6] |
| --- | --- | --- | --- | --- | --- | --- | --- | --- | --- | --- | --- |
| CC(=O)Nc1ccc(NC(=O)C2=Cc3ccccc3OC2)cc1 | 62.1% | 54.1% | 57.3% | 84.7% | 364 µM (≈ 112 µg/mL) |  |  |  |  | 93 mm |  |
| COc1ccc(NC(=O)c2c[nH]c3ccccc3c2=O)cc1 | 71% | 69.8% | 53.1% | 81.1% |  |  |  |  |  |  |  |
| COC(=O)c1ccc(NC(=O)c2c[nH]c3ccccc3c2=O)cc1 | 61.6% | 61.3% | 49.7% | 73.6% |  |  |  |  |  |  |  |
| COc1ccccc1NC(=O)C1=Cc2c(OC)cccc2OC1 | 58.2% | 56.1% | 50.9% | 81.8% |  |  |  |  |  |  |  |
| COc1ccccc1NC(=O)c1c[nH]c2c(Cl)cccc2c1=O | 64.3% | 64.9% | 52.8% | 84.4% | 13.7 µM (≈ 4.5 µg/mL) | Active | Active |  | 49% |  |  |
| CNC(=O)c1ccccc1NC(=O)C1=Cc2c(Br)cccc2OC1 | 48.1% | 46.1% | 47.9% | 89.2% |  |  |  |  |  |  |  |
| Cc1ccc(O)cc1NC(=O)c1c[nH]c2c(Cl)cccc2c1=O | 53.6% | 44.7% | 41.6% | 92.7% | 140 µM (≈ 46 µg/mL) |  |  |  |  |  |  |
| O=C(NCc1cccc(Cl)c1)c1cc2c(Br)cccc2oc1=O | 45.4% | 45.2% | 43.1% | 97% |  |  |  |  |  |  |  |
| CC(=O)Nc1ccc(NC(=O)c2c[nH]c3c(Cl)cccc3c2=O)cc1 | 61.5% | 62% | 62.7% | 91.9% | 34.7 µM (≈ 12.3 µg/mL) | Active | Active |  |  | 96 mm |  |
| COc1ccccc1CNC(=O)c1c[nH]c2c(Cl)cccc2c1=O | 44.4% | 41.2% | 23.2% | 66.1% |  |  |  |  |  |  |  |
| COc1cccc2c(=O)c(C(=O)Nc3cc(O)ccc3C)c[nH]c12 | 34.5% | 46.4% | 56.1% | 85.8% |  |  |  |  |  |  |  |
| COc1ccc(NC(=O)C2=Cc3ccccc3OC2)cc1 | 43.3% | 35% | 61.5% | 100.3% |  |  |  |  |  |  |  |
| COc1ccccc1NC(=O)C1=Cc2ccccc2OC1 | 41.2% | 36.9% | 76.9% | 74.1% |  |  |  |  |  |  |  |
| Cc1ccc(O)cc1NC(=O)c1c[nH]c2ccccc2c1=O | 59.5% | 52% | 50.2% | 63.6% | 29.6 µM (≈ 8.71 µg/mL) |  | Active | 154 | 45% |  | inactive |
| COc1cccc2c1C=C(C(=O)Nc1cc(Cl)ccc1O)CO2 | 51.2% | 58.5% | 64.8% | 95% |  |  |  |  |  |  |  |
| CNC(=O)c1ccccc1NC(=O)c1c[nH]c2ccccc2c1=O | 56.4% | 55.9% | 53.7% | 90.6% | 62.3 µM (≈ 20 µg/mL) |  |  |  |  |  |  |
| CC(=O)c1ccc(NC(=O)c2c[nH]c3ccccc3c2=O)cc1 | 30.8% | 30.8% | 40.2% | 74.6% |  |  |  |  |  |  |  |
| COc1cccc(OC)c1NC(=O)C1=Cc2c(Br)cccc2OC1 | 45.2% | 46.4% | 52.8% | 92.9% |  |  |  |  |  |  |  |
| COc1ccccc1CNC(=O)c1c[nH]c2ccccc2c1=O | 50.3% | 44.4% | 17.7% | 28.8% |  |  |  |  |  |  |  |
| CCOc1ccc(NC(=O)c2cnc3ccccc3c2O)cc1 | 36.4% | 28.8% | 52.7% | 93.2% |  |  |  |  |  |  |  |
